For this assay, the system named is murine neural precursor cells (neurosphere cultures). Nature of the assay: HTS of LOPAC library against secondary neurosphere cultures, MTT proliferation assay at 3 μM, day 7 (z score, P value). Type of assay: cell-based, mouse. A general note: Tetrazolium dyes change colour on reduction, which living cells bring about.
The mark [1] stands for this setting: primary LOPAC screen, 3 μM, MTT, neurosphere proliferation.
Where [2] appears, read: yes/no: significantly inhibited neurosphere proliferation in the primary screen.
The mark [3] stands for this setting: LOPAC primary screen, neurosphere MTT proliferation, 3 μM, day 7.
[4] abbreviates: yes/no: significantly inhibited neurosphere proliferation in primary screen.
[5] abbreviates: yes/no: significantly inhibited neurosphere proliferation (P<0.01) in primary screen.
Where [6] appears, read: yes = significantly inhibited neurosphere proliferation (P<0.01) in the primary screen.

Where a name gives a salt, the structure may show the parent alone. Read-outs that look alike come from different tables or passages of the source.

In the case of `CNC(=O)[C@H]1O[C@@H](n2cnc3c(NCc4ccc(N)cc4)ncnc32)[C@H](O)[C@@H]1O` [AB-MECA], the “Z Score” value is 0.7604. For the same molecule, the Z score under setting [1] is 0.760. Further, the Activity result under setting [2] was “no”.
As to `Cl.NCCc1c[nH]c2ccccc12` [Tryptamine hydrochloride], the “Z Score” value is on record as 1.245. Under setting [3], this molecule came in with a Z score of 1.245. Further, the Activity entry under setting [4] is listed as “no”.
In the case of `Nc1nc2[nH]c(=O)cnc2c(=O)[nH]1` [Isoxanthopterin], the “Z Score” value is 0.2339. This molecule also showed a Z score under setting [3] of 0.234. In addition, the Activity result under setting [5] is on record as “no”.
As for `COc1ccccc1N1CCN(CCN2C(=O)CC3(CCCC3)CC2=O)CC1` [BMY 7378 dihydrochloride], the “Z Score” value (LOPAC library screen at 3 μM, secondary neurosphere cultures, MTT) is reported as −0.6588. Where the note is “LOPAC screen, neurosphere MTT proliferation, 3 μM, day 7”, this molecule showed a Z score of −0.659. In addition, the Activity entry under setting [5] is reported as “no”.
`Cc1cccc(C)c1OCC(C)N.Cl` (stereo not shown) [Mexiletene hydrochloride]: the “Z Score” value is −1.259. This molecule had a Z score under setting [3] of −1.259. The Activity entry under setting [6] is “no”.
For `CSC(=N)N.CSC(=N)N.O=S(=O)(O)O` [S-Methylisothiourea hemisulfate], the Activity result is on record as “no”, the “Z Score” value is −0.2111 and the Z score is on record as −0.211.
Take `NCC(=O)NCCC(c1ccccc1)c1ccccc1` [N-(3,3-Diphenylpropyl)glycinamide]: for the setting “LOPAC library screen, 3 μM, MTT, secondary neurosphere cultures, day 7”, the “Z Score” value is on record as −1.243. Moreover, the Z score under setting [3] is −1.243. Moreover, the Activity entry under setting [5] is given as “no”.
On to `CNc1ncnc2c1ncn2[C@H]1C[C@H](OP(=O)(O)O)[C@@H](COP(=O)(O)O)O1` [MRS 2179], for which the “Z Score” value is −1.246. The molecule further gave a Z score under setting [3] of −1.246. For the same molecule, the Activity result under setting [6] is recorded as “no”.
With “O-(Carboxymethyl)hydroxylamine hemihydrochloride”, the “Z Score” value was −2.058. The same molecule had a Z score under setting [1] of −2.058. Moreover, the Activity result under setting [2] is reported as “no”.
Consider (−)-Naproxen sodium, for which, under “LOPAC library screen, 3 μM, MTT, neurosphere cultures”, the “Z Score” value was 0.6024. The Z score under setting [3] is 0.602. In addition, under setting [6], the Activity entry is listed as “no”.
In the case of `O=C(/C=C/c1ccc(O)cc1)c1ccc(O)cc1O` [Isoliquiritigenin], under “168 h, 3 µM”, the “Z Score” value is recorded as −2.817 and the Z score was −2.817. For the same molecule, the Activity entry (yes/no: significantly inhibited neurosphere proliferation (P<0.01) in the primary screen) is “yes”.
Under setting [3], `NC[C@H](O)c1ccc(O)c(O)c1.O=C(O)C(O)C(O)C(=O)O` (racemic) [(±)-Norepinephrine (+)bitartrate] came in with a Z score of 0.099. Further, the Activity entry under setting [4] is “no”.
On to `CS(=O)(=O)O.Cc1c(C(=O)c2cccc3ccccc23)c2cccc3c2n1[C@H](CN1CCOCC1)CO3` [(R)-(+)-WIN 55,212-2 mesylate], for which the “Z Score” value was −0.6807. The molecule also showed a Z score under setting [1] of −0.681. Besides, under setting [2], the Activity entry is reported as “no”.
`CC(C)[N+](C)(CCOC(=O)C1c2ccccc2Oc2ccccc21)C(C)C` [Propantheline bromide]: for the setting “168 h, 3 µM”, the “Z Score” value is −1.534 and the Z score is on record as −1.534. Besides, the Activity entry under setting [4] is “no”.
Regarding `Cl.O=C(O)Cc1c[nH]cn1` [Imidazole-4-acetic acid hydrochloride], the “Z Score” value was −0.9223. Further, the Z score under setting [3] is given as −0.922. Further, the Activity entry under setting [5] was “no”.
In the case of `NC(CCP(=O)(O)O)C(=O)O` (racemic) [(±)-2-Amino-4-phosphonobutyric acid], under setting [1], the Z score is recorded as 1.893. Moreover, the Activity result under setting [2] is listed as “no”.
As for `CCCOC(=O)c1c(-c2ccccc2)nc(CC)c(C(=O)SCC)c1CCC` [MRS 1523], the “Z Score” value is recorded as −0.001312. Besides, the Z score under setting [3] is −0.001. Besides, under setting [6], the Activity result was “no”.
For the molecule `CC1CCCC=CC2CC(O)CC2C(O)C=CC(=O)O1` (stereo not shown), the “Z Score” value was −11.27. Under setting [3], this molecule returned a Z score of −11.274. In addition, the Activity entry under setting [6] is recorded as “yes”.
Turning to `NC(Cc1cc(O)c(O)cc1O)C(=O)O` (racemic) [6-Hydroxy-DL-DOPA], the “Z Score” value came to 1.204. This molecule also came in with a Z score under setting [3] of 1.204. Moreover, the Activity result under setting [5] is listed as “no”.

The values are drawn from US8058243B2, “Method for treating a brain cancer with ifenprodil” (HSC Research and Development Limited Partnership, priority 2006, dated 2011).
